Measured values: US20070265164A1, “Active Substances for Increasing Pathogenic Defense in Plants and Methods for the Detection Thereof” (Bayer Cropscience GmbH, priority 2004, published 2007)

How the values were obtained:
Format in all cases: in vivo
Set-up in all cases: fold induction: dose or concentration left out as unconfirmed
[1] = system: Contig5146_at, Probable 12-oxophytodienoate reductase (EC 1.3.1.42); experiment: GEP, barley DNA chip, probe set 1.4; conditions: for fold induction / fold induction at 150 g/ha: Hordeum vulgare, topical, read-out: Expression value, 1.4 Contig5146_at; for fold induction: rates of Table 1 (S7 500); for fold induction at 150 g/ha: 6 h
Method: (§1) Barley plants (cv. Baronesse) were grown in compost-filled pots (diameter: 10 cm) for 10 days in a controlled-environment cabinet under defined light, humidity and temperature conditions (white light, 70% atmospheric humidity, 24° C.). At the time of spray application, the seedlings were approximately 15 cm in size. The test substances selected in this example were molecules which differ markedly in their structure and which have a well documented pronounced safener effect, and other molecules which are known from the literature to have an effect on plant stress and pathogen tolerance (Table 1). The substances were prepared as stock solutions in DMSO (dimethyl sulfoxide) at c=10 mg/ml). This was used for preparing dilutions in water supplemented with 0.2% Agrotin (comprises polyvinyl alcohol, silicones, polysaccharides and pH regulators, manufacturer: Bayer CropScience AG, Monheim, Germany), as wetter, to give the application rates shown in the table. The amount of liquid for the spray application was 800 μl per pot, corresponding to 800 l/ha. For each 800 μl of spray mixture, 16 μl of EC premix: diacetone alcohol=1:6 were additionally added as formulation auxiliaries. The substances listed in Table 1 were applied to the leaves by means of a pneumatic spray pistol. Each substance was sprayed as 2 dosages, and all experiments were carried out as replicates (2 pots per substance). Sprayings with blank formulation without active ingredient were carried out as controls. After 6 hours, the leaves were harvested, frozen in liquid nitrogen and stored at −80° C. until further use. The labeled RNA probes for the DNA chip hybridization were prepared as described in the protocols (Expression Analysis, Technical Manual) from Affymetrix (Affymetrix Inc., 3380 Central Expressway, Santa Clara, Calif., USA). First, total RNA was isolated from in each case 500 mg of the harvested leaves. In each case 10 μg of total RNA was used for the first-strand and second-strand cDNA synthesis. The cDNA was amplified with T7 polymerase and simultaneously labeled with biotin-UTP. In each case, 20 μg of this biotinylated cDNA was employed for the hybridization of the barley genome array (Gene Chip Barleyl, order No.: 511012) from Affymetrix. This DNA microarray comprises DNA sequences of 22 840 genes which are composed of a total of 400 000 EST sequences. Thereafter, the DNA microarrays were washed in the Affymetrix Fluidics Station, stained with streptavidin/phycoerythrin (Molecular Probes, P/N S-866) and scanned with the matching Agilent Laser Scanner (Agilent Gene Array Scanner). The fluorescent data obtained were analyzed with the software Microarray Suite 5 from Affymetrix. After the quality had been checked, all DNA chip analyses were stored in a database. To determine the relative expression values for genes (induction factors, repression factors), test and control chips were compared with each other, and the scoring function set by the Affymetrix software was used as the basis. The 2 biological replications of one experiment were compared in each case with 2 control chips (blank formulation), and the 4 expression values obtained for each gene were used for calculating the median. These medians are shown in the results tables as induction factors. Similarity comparisons of expression profiles from different experiments and cluster analyses were carried out using the software GeneMaths 1.5 from Applied Maths (Applied Maths, Keistraat 120, 9830 Sint-Martens-Latem, Belgium).
(§2) Gene groups from specific metabolic pathways and signal transduction chains were put together by key word search in the annotations, of the genes, which were also provided by Affymetrix, and by Blast analyses (homology comparisons) of the DNA target sequences, i.e. of the positive sequence (identified on the basis of a modified expression profile) identified on the DNA chip, using gene sequences from other organisms, preferably plant organisms, with characterized functions. […]

[2] = system: Contig6194_a_at, 12-oxophytodienoic acid reductase; experiment: GEP, barley DNA chip, probe set 1.7; conditions: for fold induction / fold induction at 150 g/ha: Hordeum vulgare, topical, read-out: Expression value, 1.7 Contig6194_a_at; for fold induction: rates of Table 1 (S7 500); for fold induction at 150 g/ha: 6 h
Method: as §1, §2

[3] = system: Contig12574_at, Putative lipoxygenase; experiment: GEP, barley DNA chip, probe set 1.11; conditions: for fold induction / fold induction at 150 g/ha: Hordeum vulgare, read-out: Expression value, 1.11 Contig12574_at; for fold induction: rates of Table 1 (S7 500); for fold induction at 150 g/ha: 6 h
Method: as §1, §2

[4] = system: Contig3096_s_at, Allene oxide synthase; experiment: GEP, barley DNA chip, probe set 1.16; conditions: for fold induction / fold induction at 150 g/ha: Hordeum vulgare, topical, read-out: Expression value, 1.16 Contig3096_s_at; for fold induction: rates of Table 1 (S7 500); for fold induction at 150 g/ha: 6 h
Method: as §1, §2

[5] = system: Contig13413_at, Similar to lipases; experiment: GEP, barley DNA chip, probe set 1.17; conditions: for fold induction / fold induction at 150 g/ha: Hordeum vulgare, topical, read-out: Expression value, 1.17 Contig13413_at; for fold induction: rates of Table 1 (S7 500); for fold induction at 150 g/ha: 6 h
Method: as §1, §2

[6] = system: Contig2326_s_at, 12-oxophytodienoic acid reductase; experiment: GEP, barley DNA chip, probe set 1.18; conditions: for fold induction / fold induction at 150 g/ha: Hordeum vulgare, topical, read-out: Expression value, 1.18 Contig2326_s_at; for fold induction: rates of Table 1 (S7 500); for fold induction at 150 g/ha: 6 h
Method: as §1, §2

[7] = system: Contig34_s_at, Putative proteinase inhibitor; experiment: GEP, barley DNA chip, probe set 2.2; conditions: for fold induction / fold induction at 150 g/ha: Hordeum vulgare, topical, read-out: Expression value, 2.2 Contig34_s_at; for fold induction: rates of Table 1 (S7 500); for fold induction at 150 g/ha: 6 h
Method: as §1, §2

[8] = system: HD07M22r_s_at, Proteinase-Inhibitor (pir S71555, barley); experiment: GEP, barley DNA chip, probe set 2.4; conditions: for fold induction / fold induction at 150 g/ha: Hordeum vulgare, topical, read-out: Expression value, 2.4 HD07M22r_s_at; for fold induction: rates of Table 1 (S7 500); for fold induction at 150 g/ha: 6 h
Method: as §1, §2

[9] = system: Contig5607_s_at, Pathogen-related protein (PirT06168); experiment: GEP, barley DNA chip, probe set 4.3; conditions: for fold induction / fold induction at 150 g/ha: Hordeum vulgare, topical, read-out: Expression value, 4.3 Contig5607_s_at; for fold induction: rates of Table 1 (S7 500); for fold induction at 150 g/ha: 6 h
Method: as §1, §2

[10] = system: Contig2990_at, Chitinase (EC 3.2.1.14); experiment: GEP, barley DNA chip, probe set 5.1; conditions: for fold induction / fold induction at 150 g/ha: Hordeum vulgare, topical, read-out: Expression value, 5.1 Contig2990_at; for fold induction: rates of Table 1 (S7 500); for fold induction at 150 g/ha: 6 h
Method: as §1, §2

[11] = system: Contig2992_s_at, Chitinase (EC 3.2.1.14); experiment: GEP, barley DNA chip, probe set 5.2; conditions: for fold induction / fold induction at 150 g/ha: Hordeum vulgare, topical, read-out: Expression value, 5.2 Contig2992_s_at; for fold induction: rates of Table 1 (S7 500); for fold induction at 150 g/ha: 6 h
Method: as §1, §2

[12] = system: Contig5023_at, Class III chitinase; experiment: GEP, barley DNA chip, probe set 5.3; conditions: for fold induction / fold induction at 150 g/ha: Hordeum vulgare, topical, read-out: Expression value, 5.3 Contig5023_at; for fold induction: rates of Table 1 (S7 500); for fold induction at 150 g/ha: 6 h
Method: as §1, §2

[13] = barley leaves 6 h after spray application, median induction factor vs control
[14] = barley leaves 6 h after spray application, rates of Table 1 (150 g a.i./ha, S7 500), median induction factor vs control

Structure (SMILES) | fold induction [1, 13] | fold induction [2, 13] | fold induction [3, 13] | fold induction [4, 13] | fold induction [5, 13] | fold induction [6, 13] | fold induction [7, 13] | fold induction [8, 13] | fold induction [9, 13] | fold induction [10, 13] | fold induction [11, 13] | fold induction [12, 13] | other results
NC(=O)c1ccc(C(F)(F)F)nc1O [S6] | 6.77 | 3.16 | 1 | 1 | 1 | 1 | 1 | 5.1 | 9.99 | 1 | 2.27 | 1 | –
COC(=O)C1=NN(c2ccc(Cl)cc2Cl)C(C)(C(=O)OC)C1 (stereo not drawn) [S1, Mefenpyr-dimethyl] | 7.73 | 12.9 | 0.5 | 1 | 1 | 2.31 | 1 | 6.32 | 18.6 | 4.17 | 6.5 | 9.51 | –
CCOC(=O)C(Oc1ccc(Cl)c2cccnc12)C(=O)OCC [S5] | 5.35 | 2.81 | 1 | 1 | 1 | 1 | 1 | 7.84 | 8.75 | 1 | 3.12 | 2.73 | –
CCCCCC(C)OC(=O)COc1ccc(Cl)c2cccnc12 (stereo not drawn) [S4, Cloquintocet-mexyl] | 4.72 | 2.17 | 1 | 1 | 1 | 2.45 | 1 | 1 | 18.4 | 1 | 1 | 1 | –
O=C(O)c1cc(Cl)cc(Cl)c1O [S10] | 1 | 1 | 1 | 1 | 1 | 1 | 2.08 | 1 | 1 | 1 | 1 | 1 | –
O=C(O)C1=NN(c2ccc(Cl)cc2Cl)C(c2ccc(F)cc2)C1 (stereo not drawn) [S2] | 4.47 | 4.14 | 1 | 1 | 1 | 1 | 1 | 1 | 15.6 | 1 | 1 | 3.18 | –
O=C(NO)c1ccccc1O [S7, Salicyl hydroxamate] | – | – | – | – | – | – | – | – | – | – | – | – | Expression value, 1.4 Contig5146_at [1, 14]: 1.00 x times; Expression value, 1.7 Contig6194_a_at [2, 14]: 1.00 x times; Expression value, 1.11 Contig12574_at [3, 14]: 1.00 x times; Expression value, 1.16 Contig3096_s_at [4, 14]: 2.06 x times; Expression value, 1.17 Contig13413_at [5, 14]: 1.00 x times; Expression value, 1.18 Contig2326_s_at [6, 14]: 1.00 x times; Expression value, 2.2 Contig34_s_at [7, 14]: 4.50 x times; Expression value, 2.4 HD07M22r_s_at [8, 14]: 1.00 x times; Expression value, 4.3 Contig5607_s_at [9, 14]: 1.00 x times; Expression value, 5.1 Contig2990_at [10, 14]: 1.00 x times; Expression value, 5.2 Contig2992_s_at [11, 14]: 1.00 x times; Expression value, 5.3 Contig5023_at [12, 14]: 1.00 x times
CCOC(=O)C1=NOC(c2ccccc2)(c2ccccc2)C1 [S3, Isoxadifen-ethyl] | – | – | – | – | – | – | – | – | – | – | – | – | fold induction at 150 g/ha [1]: 4.5; fold induction at 150 g/ha [2]: 3.25; fold induction at 150 g/ha [3]: 2.81; fold induction at 150 g/ha [4]: 1; fold induction at 150 g/ha [5]: 1; fold induction at 150 g/ha [6]: 1; fold induction at 150 g/ha [7]: 1; fold induction at 150 g/ha [8]: 2.71; fold induction at 150 g/ha [9]: 13.4; fold induction at 150 g/ha [10]: 2.77; fold induction at 150 g/ha [11]: 2.19; fold induction at 150 g/ha [12]: 1
O=C(O)c1cc(Cl)nc(Cl)c1 [S9] | – | – | – | – | – | – | – | – | – | – | – | – | fold induction at 150 g/ha [1]: 1; fold induction at 150 g/ha [2]: 1; fold induction at 150 g/ha [3]: 1; fold induction at 150 g/ha [4]: 1; fold induction at 150 g/ha [5]: 1; fold induction at 150 g/ha [6]: 1; fold induction at 150 g/ha [7]: 1; fold induction at 150 g/ha [8]: 1; fold induction at 150 g/ha [9]: 1; fold induction at 150 g/ha [10]: 2.39; fold induction at 150 g/ha [11]: 2.14; fold induction at 150 g/ha [12]: 4.56
